Laboratory results taken from ChEMBL document CHEMBL4118281, “Azoalkyl ether imidazo[2,1-b]benzothiazoles as potentially antimicrobial agents with novel structural skeleton” (2018).
≈ marks a conversion by molar mass, not a printed value.

What was measured:
[1] = system: Saccharomyces cerevisiae; experiment: Antifungal activity against Beer yeast after 24 hrs by two fold serial dilution based spectrophotometric analysis; type: functional
[2] = system: Staphylococcus aureus; experiment: Antibacterial activity against methicillin-resistant Staphylococcus aureus N315 after 24 hrs by micro broth dilution method; type: functional; details: N315, 24 h
[3] = system: Escherichia coli; experiment: Antibacterial activity against Escherichia coli DH52 after 24 hrs by micro broth dilution method; type: functional; details: DH52, 24 h
[4] = system: Micrococcus luteus; experiment: Antibacterial activity against Micrococcus luteus ATCC 4698 after 24 hrs by micro broth dilution method; type: functional; details: NCTC 2665, 24 h
[5] = system: Bacillus; experiment: Antibacterial activity against Bacillus proteus ATCC 13315 after 24 hrs by micro broth dilution method; type: functional; details: ATCC 13315, 24 h
[6] = system: Escherichia coli; experiment: Antibacterial activity against Escherichia coli JM109 after 24 hrs by micro broth dilution method; type: functional; details: JM109, 24 h
[7] = system: Pichia norvegensis; experiment: Antifungal activity against Candida mycoderma after 24 hrs by two fold serial dilution based spectrophotometric analysis; type: functional
[8] = system: Bacillus subtilis; experiment: Antibacterial activity against Bacillus subtilis after 24 hrs by micro broth dilution method; type: functional
[9] = system: Salmonella typhi; experiment: Antibacterial activity against Bacillus typhi after 24 hrs by micro broth dilution method; type: functional, Salmonella enterica subsp. enterica serovar Typhi; details: Salmonella enterica
[10] = system: Staphylococcus aureus; experiment: Antibacterial activity against Staphylococcus aureus ATCC 25923 after 24 hrs by micro broth dilution method; type: functional; details: ATCC 25923, 24 h
[11] = system: Cyberlindnera jadinii; experiment: Antifungal activity against Candida utilis after 24 hrs by two fold serial dilution based spectrophotometric analysis; type: functional; details: Williopsis jadinii
[12] = system: Shigella dysenteriae; experiment: Antibacterial activity against Shigella dysenteriae after 24 hrs by micro broth dilution method; type: functional
[13] = system: Aspergillus flavus; experiment: Antifungal activity against Aspergillus flavus after 24 hrs by two fold serial dilution based spectrophotometric analysis; type: functional
[14] = system: Candida albicans; experiment: Antifungal activity against Candida albicans after 24 hrs by two fold serial dilution based spectrophotometric analysis; type: functional
[15] = system: Pseudomonas aeruginosa; experiment: Antibacterial activity against Pseudomonas aeruginosa after 24 hrs by micro broth dilution method; type: functional

SMILES | MIC [1] | MIC [2] | MIC [3] | MIC [4] | MIC [5] | MIC [6] | MIC [7] | MIC [8] | MIC [9] | MIC [10] | MIC [11] | MIC [12] | MIC [13] | MIC [14] | MIC [15]
O=[N+]([O-])c1cn(CCCOCc2c(-c3ccccc3)nc3sc4ccccc4n23)cn1 | 64 µg/mL (≈ 148 µM) | 8 µg/mL (≈ 18.5 µM) | 4 µg/mL (≈ 9.23 µM) | 256 µg/mL (≈ 591 µM) | 4 µg/mL (≈ 9.23 µM) | 8 µg/mL (≈ 18.5 µM) | 32 µg/mL (≈ 73.8 µM) | 2 µg/mL (≈ 4.61 µM) | 32 µg/mL (≈ 73.8 µM) | 4 µg/mL (≈ 9.23 µM) | 128 µg/mL (≈ 295 µM) | 8 µg/mL (≈ 18.5 µM) | 16 µg/mL (≈ 36.9 µM) | 2 µg/mL (≈ 4.61 µM) | 2 µg/mL (≈ 4.61 µM)
c1ccc(-c2nc3sc4ccccc4n3c2COCCCn2cncn2)cc1 | 64 µg/mL (≈ 164 µM) | 16 µg/mL (≈ 41.1 µM) | 16 µg/mL (≈ 41.1 µM) | 64 µg/mL (≈ 164 µM) | 16 µg/mL (≈ 41.1 µM) | 16 µg/mL (≈ 41.1 µM) | 32 µg/mL (≈ 82.2 µM) | 8 µg/mL (≈ 20.5 µM) | 32 µg/mL (≈ 82.2 µM) | 4 µg/mL (≈ 10.3 µM) | 64 µg/mL (≈ 164 µM) | 16 µg/mL (≈ 41.1 µM) | 16 µg/mL (≈ 41.1 µM) | 4 µg/mL (≈ 10.3 µM) | 4 µg/mL (≈ 10.3 µM)
CCOc1ccc2c(c1)sc1nc(-c3ccccc3)c(COCCCCCCCCCCn3c([N+](=O)[O-])cnc3C)n12 | 64 µg/mL (≈ 109 µM) | 128 µg/mL (≈ 217 µM) | 256 µg/mL (≈ 434 µM) | 512 µg/mL (≈ 868 µM) | 256 µg/mL (≈ 434 µM) | 512 µg/mL (≈ 868 µM) | 256 µg/mL (≈ 434 µM) | 32 µg/mL (≈ 54.3 µM) | 256 µg/mL (≈ 434 µM) | 128 µg/mL (≈ 217 µM) | 256 µg/mL (≈ 434 µM) | 16 µg/mL (≈ 27.1 µM) | 512 µg/mL (≈ 868 µM) | 128 µg/mL (≈ 217 µM) | 128 µg/mL (≈ 217 µM)
Cc1ncc([N+](=O)[O-])n1CCCCCOCc1c(-c2ccccc2)nc2sc3ccccc3n12 | > 512 µg/mL | 8 µg/mL (≈ 16.8 µM) | 8 µg/mL (≈ 16.8 µM) | 64 µg/mL (≈ 135 µM) | 16 µg/mL (≈ 33.6 µM) | 2 µg/mL (≈ 4.21 µM) | 64 µg/mL (≈ 135 µM) | 16 µg/mL (≈ 33.6 µM) | 32 µg/mL (≈ 67.3 µM) | 4 µg/mL (≈ 8.41 µM) | 128 µg/mL (≈ 269 µM) | 16 µg/mL (≈ 33.6 µM) | 16 µg/mL (≈ 33.6 µM) | 8 µg/mL (≈ 16.8 µM) | 8 µg/mL (≈ 16.8 µM)
c1ccc(-c2nc3sc4ccccc4n3c2COCCCCCn2cncn2)cc1 | 8 µg/mL (≈ 19.2 µM) | 16 µg/mL (≈ 38.3 µM) | 32 µg/mL (≈ 76.6 µM) | 256 µg/mL (≈ 613 µM) | 32 µg/mL (≈ 76.6 µM) | 16 µg/mL (≈ 38.3 µM) | 8 µg/mL (≈ 19.2 µM) | 32 µg/mL (≈ 76.6 µM) | 32 µg/mL (≈ 76.6 µM) | 16 µg/mL (≈ 38.3 µM) | 64 µg/mL (≈ 153 µM) | 8 µg/mL (≈ 19.2 µM) | 16 µg/mL (≈ 38.3 µM) | 4 µg/mL (≈ 9.58 µM) | 32 µg/mL (≈ 76.6 µM)
